The values below come from publication PMC10372819 (Acta Pharmaceutica Sinica. B, 2023).

The target of one series is hERG (Homo sapiens, UniProt Q12809). The series is described as follows: hERG channel Qpatch assay in CHO-hERG cells. Type of series: cell-based. Particulars: at 40 μmol/L. For orientation: The hERG channel carries a current that helps repolarise heart muscle cells.
Series [1] in a line: Liver microsomal stability, monkey. The class given is in vitro ADME. Background: Microsomes from liver hold many membrane-bound enzymes, among them those of drug oxidation.
Series [2] in a line: Liver microsomal stability, dog. The class given is in vitro ADME.
A short description of series [3]: Liver microsomal stability, human. The class given is in vitro ADME.
Series [4] can be described thus: In vivo pharmacokinetics in Sprague-Dawley rats. Particulars: male, rat, plasma.
The test system of a further series is mice. The series can be described thus: Acute toxicity assay and HE staining in healthy mice. The class given is in vivo.
Series [5] concerns WT HIV-1. Particulars: Selectivity index CC50/EC50 (WT).
The next series deals with WT HIV-1 RT (Human immunodeficiency virus type 1 group M subtype B, UniProt P03366). The series can be described thus: biochemical.
For series [6], the system named is WT HIV-1. The series can be described thus: microbe, parasite or virus in culture. Particulars: Human immunodeficiency virus 1, MT4, read-out: WT EC50.
The test system of another series is HIV-1 mutant L100I. The series can be described thus: microbe, parasite or virus in culture. Particulars: Human immunodeficiency virus 1, MT4, read-out: EC50 L100I.
The next series relates to HIV-1 mutant K103N. The series is described as follows: microbe, parasite or virus in culture. The note with it: Human immunodeficiency virus 1, MT4, read-out: EC50 K103N.
Another series has as its system HIV-1 mutant Y188L. The series can be described thus: microbe, parasite or virus in culture. Particulars: Human immunodeficiency virus 1, MT4, read-out: EC50 Y188L.
In the next series the test system is HIV-1 mutant E138K. The series can be described thus: microbe, parasite or virus in culture. The note with it: Human immunodeficiency virus 1, MT4, read-out: EC50 E138K.
The nature of series [7]: Cytotoxicity in uninfected. The note with it: human, mock-infected (uninfected) MT-4 cells, CC50, uninfected MT-4 cells, MTT.
A further series relates to MT-4 cells. The series can be described thus: Cytotoxicity in uninfected. Particulars: uninfected MT-4 cells, MTT.
The next series concerns the target CYP2D6 (Homo sapiens, UniProt P10635). The series is described as follows: biochemical.
The mark [8] stands for this setting: MF%>70% excellent, 30-70% good, <30% poor.

Chain of hERG (Q12809 whole entry): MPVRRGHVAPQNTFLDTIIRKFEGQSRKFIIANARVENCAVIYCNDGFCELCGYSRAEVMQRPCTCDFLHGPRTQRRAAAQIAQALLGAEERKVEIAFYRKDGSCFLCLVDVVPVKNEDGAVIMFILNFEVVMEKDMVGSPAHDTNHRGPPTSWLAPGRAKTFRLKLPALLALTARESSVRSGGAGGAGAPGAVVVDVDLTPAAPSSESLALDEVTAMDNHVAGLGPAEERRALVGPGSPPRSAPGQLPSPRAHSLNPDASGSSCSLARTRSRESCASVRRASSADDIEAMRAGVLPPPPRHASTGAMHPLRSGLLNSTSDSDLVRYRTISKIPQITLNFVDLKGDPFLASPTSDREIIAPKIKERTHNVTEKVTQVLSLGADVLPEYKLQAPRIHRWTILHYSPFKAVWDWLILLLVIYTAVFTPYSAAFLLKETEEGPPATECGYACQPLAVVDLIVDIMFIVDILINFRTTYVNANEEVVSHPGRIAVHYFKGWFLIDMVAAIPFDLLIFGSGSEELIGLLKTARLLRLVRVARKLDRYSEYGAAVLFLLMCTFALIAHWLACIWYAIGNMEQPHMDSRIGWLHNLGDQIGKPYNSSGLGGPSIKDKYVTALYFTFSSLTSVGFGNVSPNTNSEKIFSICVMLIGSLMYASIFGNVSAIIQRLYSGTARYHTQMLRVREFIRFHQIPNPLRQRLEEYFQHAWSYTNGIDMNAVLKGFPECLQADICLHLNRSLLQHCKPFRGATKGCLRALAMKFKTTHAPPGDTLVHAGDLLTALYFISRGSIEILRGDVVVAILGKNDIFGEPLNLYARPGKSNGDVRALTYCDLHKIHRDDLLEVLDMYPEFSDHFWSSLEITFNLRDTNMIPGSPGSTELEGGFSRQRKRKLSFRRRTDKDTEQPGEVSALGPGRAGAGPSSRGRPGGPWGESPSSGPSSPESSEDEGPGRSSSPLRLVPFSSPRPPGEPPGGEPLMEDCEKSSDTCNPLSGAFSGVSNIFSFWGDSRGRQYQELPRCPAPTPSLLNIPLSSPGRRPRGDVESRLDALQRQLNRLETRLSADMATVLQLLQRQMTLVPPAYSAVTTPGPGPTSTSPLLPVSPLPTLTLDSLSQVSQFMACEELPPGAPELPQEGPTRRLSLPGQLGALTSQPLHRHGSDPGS
Chain of CYP2D6 (P10635 whole entry): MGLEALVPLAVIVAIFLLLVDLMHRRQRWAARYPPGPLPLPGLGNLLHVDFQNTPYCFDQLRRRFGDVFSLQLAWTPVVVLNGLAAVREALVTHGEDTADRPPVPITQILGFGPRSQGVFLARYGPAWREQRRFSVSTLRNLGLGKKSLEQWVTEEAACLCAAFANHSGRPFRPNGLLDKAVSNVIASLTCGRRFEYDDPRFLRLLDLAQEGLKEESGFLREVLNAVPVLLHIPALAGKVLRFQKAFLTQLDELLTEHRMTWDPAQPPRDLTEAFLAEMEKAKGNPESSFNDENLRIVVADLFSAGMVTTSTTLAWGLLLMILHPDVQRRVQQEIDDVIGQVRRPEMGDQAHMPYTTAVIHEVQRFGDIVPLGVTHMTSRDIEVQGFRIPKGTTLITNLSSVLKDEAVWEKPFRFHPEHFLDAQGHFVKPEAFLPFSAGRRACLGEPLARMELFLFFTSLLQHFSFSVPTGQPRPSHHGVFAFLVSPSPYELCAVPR

Consider `N#Cc1ccc(Nc2ncc(CO)c(Oc3c(F)cc(-c4ccc(C#N)cc4)cc3F)n2)cc1` [9g, 4′-((2-((4-Cyanophenyl)amino)-5-(hydroxymethyl)pyrimidin-4-yl)oxy)-3′,5′-difluoro-[1,1′-biphenyl]-4-carbonitrile], for which the “inhibition of hERG” value on hERG is “no significant inhibition”. For the same molecule, the MF in series [1] (setting [8]) is given as 28.1%; in series [2] (setting [8]), 42.2%; in series [3] (human, MF%>70% excellent, 30-70% good, <30% poor), 96.3%. The half-life (in general, the time needed for the level to fall by half in the phase considered) is 0.435 h in series [1] (monkey liver microsomes); 1.19 h in series [2] (dog liver microsomes); 45.9 h in series [3] (human, human liver microsomes); 1.5 ± 0.14 h in series [4] (iv, 1 mg/kg); 5.21 ± 3.02 h in [4] (po, 10 mg/kg). For the same molecule, the CLint scaled (in general, the capacity of the preparation to metabolise the compound, expressed as a volume cleared per time) in [1] (monkey liver microsomes, Clint(hep)) is 122 mL/min/kg; in [1] (monkey liver microsomes, Clint(mic), monkey liver microsome), 80.5 mL/min/kg; in [2] (dog liver microsomes, Clint(hep)), 179 mL/min/kg; in series [2] (dog liver microsomes, Clint(mic), dog liver microsome), 29.5 mL/min/kg; in series [3] (human, human liver microsomes, Clint(hep)) it was 56.2 mL/min/kg; in [3] (human, human liver microsomes, Clint(mic), human liver microsome), 0.763 mL/min/kg. Also, the “t1/2 in human liver microsomes, fold longer than that of 5” value in series [3] (relative to 5 (t1/2 = 96 min)) is recorded as “about 29 fold”. In addition, the Cmax (in general, the maximum level reached in the sampled fluid or tissue) turned out to be 296 ± 79.4 ng/mL in [4] (iv, 1 mg/kg) and 39.3 ± 8.04 ng/mL in series [4] (po, 10 mg/kg). In addition, the time to peak (Tmax) (in general, the time at which the peak concentration occurs) in series [4] (iv, 1 mg/kg) was 0.08 h; in series [4] (po, 10 mg/kg) it was 0.83 ± 0.29 h. Moreover, the AUC – broadly, the area under the concentration-time curve, a measure of exposure – in series [4] (iv, 1 mg/kg, AUC0‒t, 1.0 mg/kg i.v.) is 244 ± 24.5 ng·h/mL; in series [4] (iv, 1 mg/kg, AUC0‒∞, 1.0 mg/kg i.v.), 247 ± 25.8 ng·h/mL; in series [4] (po, 10 mg/kg, AUC0‒t, 10.0 mg/kg p.o.), 159 ± 48.7 ng·h/mL; in series [4] (po, 10 mg/kg, AUC0‒∞, 10.0 mg/kg p.o.), 198 ± 38.6 ng·h/mL. Besides, the MRT (as a rule, a mean duration of stay, worked out from the concentration-time curve) in series [4] (iv, 1 mg/kg, MRT0‒t, 1.0 mg/kg i.v.) came to 1.19 ± 0.16 h; in [4] (iv, 1 mg/kg, MRT0‒∞, 1.0 mg/kg i.v.), 1.33 ± 0.21 h; in [4] (po, 10 mg/kg, MRT0‒t, 10.0 mg/kg p.o.), 3.91 ± 2.38 h; in [4] (po, 10 mg/kg, MRT0‒∞, 10.0 mg/kg p.o.), 6.8 ± 2.79 h. Further, in series [4] (po, 10 mg/kg), the bioavailability – broadly, the share of a dose that reaches the circulation, judged against a reference dose that is usually intravenous – came to 8.01 ± 0.02%. For the same molecule, the body weight entry in the series with mice (mice (male and female), 2 g/kg, within two weeks) is on record as “increased gradually”. The behavioral abnormalities result in the series on mice (mice, 2 g/kg) is “No behavioral abnormalities”. Besides, in the series on mice (mice, 2 g/kg, six organs), the “pathological injury (HE staining)” value was “no obvious pathological injury”. In addition, the tolerability result in the series with mice (mice, single oral administration of 2 g/kg) is listed as “well tolerated”. Also, in the series on WT HIV-1 [5], the SI was 256,438. The IC50 (in general, the concentration that inhibits the measured activity by half) on WT HIV-1 RT turned out to be 21 ± 1 nM. Moreover, the EC50 (in general, the concentration giving half of the maximal effect) in the series on WT HIV-1 [6] turned out to be 0.9 ± 0.1 nM; in the series on HIV-1 mutant L100I, 8.2 ± 1.4 nM; in the series with HIV-1 mutant K103N it was 1.9 ± 0.2 nM; in the series with HIV-1 mutant Y188L, 161 ± 27.6 nM; with HIV-1 mutant E138K, 3.5 ± 0.8 nM. Moreover, half-maximal cytotoxicity in series [7] (CC50 at 5 days) was put at 264000 nM. For the same molecule, half-maximal cytotoxicity in the series on MT-4 cells (CC50) was put at 225000 ± 3900 nM.

Take `COc1ccc2c(c1)[C@]13CCCC[C@@H]1[C@H](C2)N(C)CC3` [Dextromethorphan]: the IC50 on CYP2D6 stood at 39.7 nM.
